From ChEMBL document CHEMBL1201862, “PubChem BioAssay data set” (2004) come the findings set out here.

The target in assay [1] is T1, Tyrosine-protein phosphatase non-receptor type 7 (Homo sapiens, UniProt P35236).
T1 sequence (P35236 whole entry): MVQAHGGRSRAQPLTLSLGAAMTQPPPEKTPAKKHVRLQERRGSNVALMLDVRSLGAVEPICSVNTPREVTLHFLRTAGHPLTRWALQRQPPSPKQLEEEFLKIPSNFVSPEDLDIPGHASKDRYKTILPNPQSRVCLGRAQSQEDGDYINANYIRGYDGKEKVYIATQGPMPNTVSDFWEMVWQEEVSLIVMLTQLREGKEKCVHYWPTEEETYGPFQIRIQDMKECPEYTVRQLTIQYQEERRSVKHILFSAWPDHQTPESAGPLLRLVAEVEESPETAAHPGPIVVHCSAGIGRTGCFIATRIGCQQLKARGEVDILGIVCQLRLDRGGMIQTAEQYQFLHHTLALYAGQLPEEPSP
It counts as functional.

The target in assay [2] is T2, Tyrosine-protein phosphatase non-receptor type 22 (Homo sapiens, UniProt Q9Y2R2).
T2 sequence (Q9Y2R2 whole entry): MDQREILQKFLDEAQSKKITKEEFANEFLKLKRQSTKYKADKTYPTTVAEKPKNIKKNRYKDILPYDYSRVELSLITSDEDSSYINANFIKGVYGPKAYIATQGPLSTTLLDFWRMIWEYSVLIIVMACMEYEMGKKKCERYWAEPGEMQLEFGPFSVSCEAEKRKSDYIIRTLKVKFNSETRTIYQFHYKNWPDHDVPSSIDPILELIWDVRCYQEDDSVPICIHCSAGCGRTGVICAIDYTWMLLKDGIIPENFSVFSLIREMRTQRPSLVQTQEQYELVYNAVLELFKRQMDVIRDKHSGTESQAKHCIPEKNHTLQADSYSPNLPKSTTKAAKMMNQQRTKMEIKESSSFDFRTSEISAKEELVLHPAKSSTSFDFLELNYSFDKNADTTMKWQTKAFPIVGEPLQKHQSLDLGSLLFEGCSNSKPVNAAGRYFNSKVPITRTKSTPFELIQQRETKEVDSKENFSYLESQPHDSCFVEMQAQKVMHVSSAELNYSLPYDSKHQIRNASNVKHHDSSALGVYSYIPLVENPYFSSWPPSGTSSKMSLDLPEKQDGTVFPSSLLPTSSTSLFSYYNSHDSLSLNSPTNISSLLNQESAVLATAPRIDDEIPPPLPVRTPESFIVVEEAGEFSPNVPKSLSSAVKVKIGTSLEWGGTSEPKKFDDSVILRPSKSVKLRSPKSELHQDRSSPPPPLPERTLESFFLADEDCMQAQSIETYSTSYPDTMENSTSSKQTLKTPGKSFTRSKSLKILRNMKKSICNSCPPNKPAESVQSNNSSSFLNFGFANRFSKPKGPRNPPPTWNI
It counts as functional.

Assay [3] deals with T2, Tyrosine-protein phosphatase non-receptor type 22. The class given is functional. The source holds these as a separate data set.
Assay [4] addresses T3, Corticotropin-releasing factor receptor 2/Corticotropin-releasing factor-binding protein (Homo sapiens, UniProt P24387+Q13324).
T3 sequence (Q13324 whole entry): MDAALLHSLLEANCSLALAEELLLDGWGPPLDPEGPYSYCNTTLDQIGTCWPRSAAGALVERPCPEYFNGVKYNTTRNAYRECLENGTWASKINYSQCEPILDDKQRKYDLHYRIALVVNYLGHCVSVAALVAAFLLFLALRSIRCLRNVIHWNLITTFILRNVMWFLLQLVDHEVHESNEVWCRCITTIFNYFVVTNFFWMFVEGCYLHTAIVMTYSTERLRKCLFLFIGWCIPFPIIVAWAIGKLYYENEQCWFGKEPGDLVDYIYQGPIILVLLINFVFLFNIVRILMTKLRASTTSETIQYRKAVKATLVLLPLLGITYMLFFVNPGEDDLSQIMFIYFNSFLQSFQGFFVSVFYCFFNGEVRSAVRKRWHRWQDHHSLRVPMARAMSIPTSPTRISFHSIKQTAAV
T3 sequence (P24387 whole entry): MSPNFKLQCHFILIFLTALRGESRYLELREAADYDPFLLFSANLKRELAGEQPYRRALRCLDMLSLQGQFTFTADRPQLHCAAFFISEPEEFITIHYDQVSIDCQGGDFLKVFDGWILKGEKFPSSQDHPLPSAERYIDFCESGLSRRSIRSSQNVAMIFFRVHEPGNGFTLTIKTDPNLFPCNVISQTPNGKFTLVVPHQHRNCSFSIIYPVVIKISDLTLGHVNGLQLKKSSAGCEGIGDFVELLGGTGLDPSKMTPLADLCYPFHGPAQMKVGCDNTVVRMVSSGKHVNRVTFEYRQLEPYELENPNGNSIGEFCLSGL
The assay can be described thus: activators of CRF receptor 2 with binding protein – uHTS hits, confirmation (AID 602473). The class given is functional. Conditions: read-out: EC50_Mean.

Assay [5] has as its target T4, Delta-type opioid receptor (Homo sapiens, UniProt P41143). The assay is described as follows: HTS Image-Based Screen for Agonists of the DOR Receptor. [Related pubchem assays (depositor defined):AID1777, AID1786, AID2133]. It counts as functional.
The target in assay [6] is T5, Kappa-type opioid receptor (Homo sapiens, UniProt P41145). The class given is functional.
Assay [7] deals with Mu-type opioid receptor (Homo sapiens, UniProt P35372). The assay is described as follows: HTS Image-Based Screen for Agonists of the MOR Receptor. [Related pubchem assays (depositor defined):AID1777, AID1785, AID1786, AID2133]. It counts as functional.
Assay [8] has as its target T5, Kappa-type opioid receptor. The class given is functional. This is another data set of the same source.
Assay [9] addresses T4, Delta-type opioid receptor. The assay is described as follows: HTS Image-Based Screen for Antagonists of the DOR Receptor. [Related pubchem assays (depositor defined):AID1777, AID1785, AID1786, AID2133]. The class given is functional.
Assay [10] deals with T6, Peroxisome proliferator-activated receptor gamma (Homo sapiens, UniProt P37231).
T6 sequence (P37231 whole entry): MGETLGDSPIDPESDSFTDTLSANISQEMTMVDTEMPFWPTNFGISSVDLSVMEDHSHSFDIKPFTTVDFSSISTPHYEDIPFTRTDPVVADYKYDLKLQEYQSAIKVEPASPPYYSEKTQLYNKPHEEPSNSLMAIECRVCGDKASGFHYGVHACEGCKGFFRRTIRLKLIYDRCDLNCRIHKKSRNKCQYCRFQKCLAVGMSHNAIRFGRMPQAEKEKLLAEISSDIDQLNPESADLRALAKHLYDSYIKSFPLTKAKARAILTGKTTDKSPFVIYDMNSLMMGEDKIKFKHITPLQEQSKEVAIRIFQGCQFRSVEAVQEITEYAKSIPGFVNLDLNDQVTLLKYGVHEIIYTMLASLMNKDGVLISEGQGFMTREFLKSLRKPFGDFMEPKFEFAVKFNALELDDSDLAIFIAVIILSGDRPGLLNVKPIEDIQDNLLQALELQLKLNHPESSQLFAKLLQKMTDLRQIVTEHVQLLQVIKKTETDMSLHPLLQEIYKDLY
The assay can be described thus: PPARg transcriptional activation, reporter cells – cell-based, luminescence, assay provider, dose response (AID 504447). It counts as functional.

Assay [11] has as its target Peroxisome proliferator-activated receptor gamma/Nuclear receptor coactivator 3 (Homo sapiens, UniProt P37231). The assay is described as follows: TR-FRET dose response biochemical High Throughput Screening assay for agonists of the steroid receptor coactivator 3 (SRC-3) recruitment by the peroxisome proliferator-activated receptor gamma (PPAR gamma): non-selective agonists. [Related pubchem assays: 1301 (Confirmation screen.), 1048 (Primary screen.)]. The class given is functional.

Assay [12] has as its target Peroxisome proliferator-activated receptor gamma/Nuclear receptor coactivator 2 (Homo sapiens, UniProt P37231). The assay is described as follows: TR-FRET dose response biochemical High Throughput Screening assay for agonists of the steroid receptor coactivator 2 (SRC-2) recruitment by the peroxisome proliferator-activated receptor gamma (PPAR gamma): non-selective agonists. [Related pubchem assays: 1297, 1032 ]. It counts as functional.

The target in assay [13] is Peroxisome proliferator-activated receptor gamma/Nuclear receptor coactivator 1 (Homo sapiens, UniProt P37231). The assay can be described thus: TR-FRET dose response biochemical High Throughput Screening assay for agonists of the steroid receptor coactivator 1 (SRC-1) recruitment by the peroxisome proliferator-activated receptor gamma (PPAR gamma): non-selective agonists. [Related pubchem assays (depositor defined):AID1300, AID1808, AID504735, AID631]. It counts as protein assay.

Assay [14] deals with Major prion protein (Homo sapiens, UniProt P04156). The class given is functional, cell-based.

Active and inactive are the calls of the source.

Peroxisome proliferator-activated receptor gamma/Nuclear receptor coactivator 3, sequence (Q9Y6Q9 whole entry, one chain of several, further chain): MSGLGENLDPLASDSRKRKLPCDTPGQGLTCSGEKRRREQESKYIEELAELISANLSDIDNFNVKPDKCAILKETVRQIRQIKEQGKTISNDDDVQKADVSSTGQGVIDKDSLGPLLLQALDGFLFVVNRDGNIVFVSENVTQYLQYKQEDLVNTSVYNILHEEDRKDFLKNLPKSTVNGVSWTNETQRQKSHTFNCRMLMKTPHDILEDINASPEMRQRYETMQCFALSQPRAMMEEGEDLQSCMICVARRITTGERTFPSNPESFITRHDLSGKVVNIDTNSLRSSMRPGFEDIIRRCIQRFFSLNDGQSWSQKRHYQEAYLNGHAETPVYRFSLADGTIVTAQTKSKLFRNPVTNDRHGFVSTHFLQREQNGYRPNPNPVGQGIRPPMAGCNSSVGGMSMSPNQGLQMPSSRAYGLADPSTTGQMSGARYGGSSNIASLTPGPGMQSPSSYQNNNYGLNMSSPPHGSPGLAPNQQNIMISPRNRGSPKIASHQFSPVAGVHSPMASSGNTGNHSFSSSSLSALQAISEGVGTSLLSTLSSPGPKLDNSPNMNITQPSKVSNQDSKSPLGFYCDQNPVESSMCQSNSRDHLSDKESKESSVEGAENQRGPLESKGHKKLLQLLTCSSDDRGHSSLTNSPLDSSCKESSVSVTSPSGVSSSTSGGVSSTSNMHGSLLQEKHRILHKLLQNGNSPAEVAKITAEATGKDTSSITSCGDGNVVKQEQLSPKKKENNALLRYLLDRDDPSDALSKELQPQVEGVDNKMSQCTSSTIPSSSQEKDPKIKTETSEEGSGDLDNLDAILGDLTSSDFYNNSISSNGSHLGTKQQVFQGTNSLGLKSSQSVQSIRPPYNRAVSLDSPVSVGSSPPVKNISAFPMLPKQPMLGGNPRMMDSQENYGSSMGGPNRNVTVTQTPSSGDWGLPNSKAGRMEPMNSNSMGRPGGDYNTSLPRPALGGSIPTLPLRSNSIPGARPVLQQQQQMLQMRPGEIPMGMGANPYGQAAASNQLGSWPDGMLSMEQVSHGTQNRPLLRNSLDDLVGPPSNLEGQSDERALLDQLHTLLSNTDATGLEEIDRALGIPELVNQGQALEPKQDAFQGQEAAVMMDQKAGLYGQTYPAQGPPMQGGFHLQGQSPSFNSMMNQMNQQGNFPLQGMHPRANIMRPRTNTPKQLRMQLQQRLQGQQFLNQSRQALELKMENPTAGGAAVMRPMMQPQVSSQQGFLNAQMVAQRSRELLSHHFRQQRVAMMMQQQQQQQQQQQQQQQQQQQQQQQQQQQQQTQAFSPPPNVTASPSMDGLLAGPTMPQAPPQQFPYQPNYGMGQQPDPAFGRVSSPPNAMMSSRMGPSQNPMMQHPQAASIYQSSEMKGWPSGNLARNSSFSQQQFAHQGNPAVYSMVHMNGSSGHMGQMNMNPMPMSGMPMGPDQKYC
Peroxisome proliferator-activated receptor gamma/Nuclear receptor coactivator 2, sequence (Q15596 whole entry, one chain of several, further chain): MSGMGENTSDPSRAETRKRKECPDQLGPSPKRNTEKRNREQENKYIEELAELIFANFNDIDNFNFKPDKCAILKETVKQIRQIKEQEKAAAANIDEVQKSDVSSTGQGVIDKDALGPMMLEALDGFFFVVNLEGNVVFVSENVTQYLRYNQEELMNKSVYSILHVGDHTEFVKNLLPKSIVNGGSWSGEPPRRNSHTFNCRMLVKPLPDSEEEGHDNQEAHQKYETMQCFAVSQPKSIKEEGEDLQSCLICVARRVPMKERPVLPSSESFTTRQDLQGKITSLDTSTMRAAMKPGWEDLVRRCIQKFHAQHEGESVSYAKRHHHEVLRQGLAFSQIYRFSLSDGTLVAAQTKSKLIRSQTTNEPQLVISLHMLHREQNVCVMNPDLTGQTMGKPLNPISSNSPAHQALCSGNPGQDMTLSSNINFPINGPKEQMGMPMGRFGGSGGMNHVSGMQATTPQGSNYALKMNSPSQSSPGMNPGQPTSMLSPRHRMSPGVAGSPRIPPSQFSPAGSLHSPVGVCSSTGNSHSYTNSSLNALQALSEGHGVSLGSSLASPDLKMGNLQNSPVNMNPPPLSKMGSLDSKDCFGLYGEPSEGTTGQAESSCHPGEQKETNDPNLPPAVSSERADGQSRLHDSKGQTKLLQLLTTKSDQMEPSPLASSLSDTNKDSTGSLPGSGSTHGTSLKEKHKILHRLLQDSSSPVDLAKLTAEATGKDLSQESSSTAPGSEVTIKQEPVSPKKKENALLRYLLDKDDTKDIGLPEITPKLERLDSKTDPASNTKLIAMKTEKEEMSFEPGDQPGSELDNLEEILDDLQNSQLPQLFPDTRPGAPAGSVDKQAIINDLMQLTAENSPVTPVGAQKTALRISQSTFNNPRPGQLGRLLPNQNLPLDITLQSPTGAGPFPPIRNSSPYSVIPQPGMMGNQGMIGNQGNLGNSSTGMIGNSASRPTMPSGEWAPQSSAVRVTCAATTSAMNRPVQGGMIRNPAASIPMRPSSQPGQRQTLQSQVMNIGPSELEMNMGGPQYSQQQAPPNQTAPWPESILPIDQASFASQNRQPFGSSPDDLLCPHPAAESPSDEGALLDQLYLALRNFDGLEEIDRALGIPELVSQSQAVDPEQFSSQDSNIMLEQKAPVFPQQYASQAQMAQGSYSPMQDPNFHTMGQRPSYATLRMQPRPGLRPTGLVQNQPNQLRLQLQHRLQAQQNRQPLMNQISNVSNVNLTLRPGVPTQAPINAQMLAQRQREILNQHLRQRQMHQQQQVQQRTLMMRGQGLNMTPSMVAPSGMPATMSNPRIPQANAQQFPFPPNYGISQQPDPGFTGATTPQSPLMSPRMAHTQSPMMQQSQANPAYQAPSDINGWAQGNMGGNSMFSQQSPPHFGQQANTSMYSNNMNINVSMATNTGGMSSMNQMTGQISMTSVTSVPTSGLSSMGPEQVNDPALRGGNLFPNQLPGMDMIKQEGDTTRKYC
Peroxisome proliferator-activated receptor gamma/Nuclear receptor coactivator 1, sequence (Q15788 whole entry, one chain of several, further chain): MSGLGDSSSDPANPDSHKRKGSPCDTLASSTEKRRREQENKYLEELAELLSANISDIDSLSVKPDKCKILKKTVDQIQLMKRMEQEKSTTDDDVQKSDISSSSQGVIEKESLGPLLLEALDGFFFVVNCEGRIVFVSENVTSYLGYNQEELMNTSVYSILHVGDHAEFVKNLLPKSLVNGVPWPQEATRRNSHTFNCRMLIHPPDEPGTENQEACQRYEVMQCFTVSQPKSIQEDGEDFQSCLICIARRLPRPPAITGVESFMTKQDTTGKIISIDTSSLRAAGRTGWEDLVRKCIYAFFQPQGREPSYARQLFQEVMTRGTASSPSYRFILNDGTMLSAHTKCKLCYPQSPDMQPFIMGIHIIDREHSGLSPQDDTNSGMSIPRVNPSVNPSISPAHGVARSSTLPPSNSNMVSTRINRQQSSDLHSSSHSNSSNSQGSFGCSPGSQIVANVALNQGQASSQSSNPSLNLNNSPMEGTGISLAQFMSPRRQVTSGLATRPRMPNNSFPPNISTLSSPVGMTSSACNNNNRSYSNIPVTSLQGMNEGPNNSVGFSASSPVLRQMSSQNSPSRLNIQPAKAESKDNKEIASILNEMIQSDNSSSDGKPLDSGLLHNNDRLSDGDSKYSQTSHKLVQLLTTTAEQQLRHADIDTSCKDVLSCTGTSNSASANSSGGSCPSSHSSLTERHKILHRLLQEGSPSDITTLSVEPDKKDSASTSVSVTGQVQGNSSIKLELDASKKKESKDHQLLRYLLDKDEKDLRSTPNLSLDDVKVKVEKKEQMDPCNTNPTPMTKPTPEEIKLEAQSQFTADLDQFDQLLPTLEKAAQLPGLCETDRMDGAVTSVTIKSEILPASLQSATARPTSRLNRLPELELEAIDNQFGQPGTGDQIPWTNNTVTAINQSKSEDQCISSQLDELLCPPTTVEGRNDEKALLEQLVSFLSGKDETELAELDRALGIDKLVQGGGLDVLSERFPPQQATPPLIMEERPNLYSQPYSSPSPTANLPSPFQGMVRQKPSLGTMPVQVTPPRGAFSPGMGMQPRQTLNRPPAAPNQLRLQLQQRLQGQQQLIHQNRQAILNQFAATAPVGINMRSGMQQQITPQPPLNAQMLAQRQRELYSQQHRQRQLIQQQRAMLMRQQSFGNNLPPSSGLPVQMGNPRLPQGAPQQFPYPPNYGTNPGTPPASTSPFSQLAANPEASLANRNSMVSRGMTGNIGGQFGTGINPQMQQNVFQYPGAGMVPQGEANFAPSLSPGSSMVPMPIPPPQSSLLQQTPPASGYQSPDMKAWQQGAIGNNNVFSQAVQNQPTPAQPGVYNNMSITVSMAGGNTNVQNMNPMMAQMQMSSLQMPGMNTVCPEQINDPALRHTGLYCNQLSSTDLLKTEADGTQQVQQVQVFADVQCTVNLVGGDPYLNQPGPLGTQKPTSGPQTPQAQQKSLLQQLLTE
T4 sequence (P41143 whole entry): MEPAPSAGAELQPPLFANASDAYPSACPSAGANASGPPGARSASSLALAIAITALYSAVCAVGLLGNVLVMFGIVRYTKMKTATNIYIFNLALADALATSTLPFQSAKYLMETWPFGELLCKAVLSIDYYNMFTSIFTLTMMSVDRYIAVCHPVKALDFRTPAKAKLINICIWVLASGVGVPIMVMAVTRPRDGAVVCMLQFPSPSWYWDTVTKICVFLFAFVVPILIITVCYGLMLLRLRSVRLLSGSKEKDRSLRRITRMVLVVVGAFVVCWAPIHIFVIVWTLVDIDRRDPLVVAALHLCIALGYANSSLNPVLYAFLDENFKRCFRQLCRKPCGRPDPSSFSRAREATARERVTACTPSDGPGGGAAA
T5 sequence (P41145 whole entry): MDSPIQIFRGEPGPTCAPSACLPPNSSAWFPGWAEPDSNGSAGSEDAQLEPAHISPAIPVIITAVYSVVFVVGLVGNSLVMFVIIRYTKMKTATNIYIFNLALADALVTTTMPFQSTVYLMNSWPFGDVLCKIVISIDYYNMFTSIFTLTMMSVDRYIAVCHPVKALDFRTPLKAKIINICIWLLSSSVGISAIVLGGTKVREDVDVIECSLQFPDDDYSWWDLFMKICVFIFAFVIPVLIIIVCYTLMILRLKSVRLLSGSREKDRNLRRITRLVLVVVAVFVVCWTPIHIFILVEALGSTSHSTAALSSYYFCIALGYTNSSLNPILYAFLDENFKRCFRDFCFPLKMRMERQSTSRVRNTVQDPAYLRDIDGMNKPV

`Cc1ccc(C)n1-c1ccc(-c2cc[nH]n2)cc1`: the IC50 in assay [1], in assay [2] and in [3] was > 79.4 µM (inactive) throughout.

Consider `O=C(c1ccc([N+](=O)[O-])cc1)N(Cc1ccc(Cl)cc1)N1C(=O)CCCC1=O`, for which the EC50 in assay [4] was 0.709 µM (active); in assay [5], > 32 µM (inactive); in assay [6], 5.66 µM; in assay [7], > 32 µM (inactive); in assay [8], > 35 µM. Further, the IC50 in assay [9] is > 32 µM (inactive).

For `COc1ccc2c(c1)c(=O)c(C(=O)c1ccc(F)cc1)cn2CC(=O)Nc1ccc(F)cc1`, the EC50 in assay [10] is 1.8 µM (active).

For the molecule `COC(=O)c1cc(Cl)c(NC(=O)c2cc3ccccc3o2)cc1OC`, the EC50 in [11] was 63 µM (not active); in assay [12], 12.3 µM (not active); in [13], 7.17 µM (active).

Regarding `CC(=O)CSc1nc(-c2cccs2)c(C#N)c(=O)[nH]1`, the EC50 is > 79.4 µM (not active) in assay [11], > 79.4 µM (not active) in assay [12] and > 79.4 µM (inactive) in assay [13]. In [14], the IC50 was 2.27 µM (active).
